pIC50: −log10 of the molar value. Like-named read-outs stand apart in the source and are kept apart here.
How the values were obtained:
[1] = tested on: DLD-1 (human colorectal carcinoma cell line); experiment: MTT cytotoxicity assay, DLD-1; type: cell-based; settings: for pIC50: Homo sapiens, DLD-1
Experimental: (§1) Cytotoxic activities of all compounds are evaluated by MTT assay using KYSE-150 (human oesophagus carcinoma), MKN-45 (human gastric aednocarcinoma), DLD-1 (human colorectal carcinoma cell line), HepG2 (human hepatocellular carcinoma), MCF-7 (human breast adenocarcinoma), and MDA-MB-231 (human breast adenocarcinoma). Canthatidin is used as positive control.
(§2) Cells are seeded in a 96-well plate (4×10^3 cells/well) and allowed to attach overnight.
(§3) After the recovery, cells are treated with 1.56 μM, 3.125 μM, 6.25 μM, 12.5 μM, 25 μM, 50 μM of each of the compounds in culture medium for 48 hrs. […] Finally, the culture medium is removed and 200 μL of DMSO are added to each well to dissolve the purple formazan crystals.

[2] = tested on: HepG2 (human hepatocellular carcinoma); experiment: MTT cytotoxicity assay, HepG2; type: cell-based; settings: 48 hrs treatment
Experimental: as §1, §2, §3

[3] = tested on: KYSE-150 (human oesophagus carcinoma); experiment: MTT cytotoxicity assay, KYSE-150; type: cell-based; settings: for pIC50: Homo sapiens, KYSE-150
Experimental: as §1, §2, §3

[4] = tested on: MDA-MB-231 (human breast adenocarcinoma); experiment: MTT cytotoxicity assay, MDA-MB-231; type: cell-based; settings: for pIC50: Homo sapiens, MDA-MB-231
Experimental: as §1, §2, §3

[5] = tested on: MKN-45 (human gastric aednocarcinoma); experiment: MTT cytotoxicity assay, MKN-45; type: cell-based; settings: 48 hrs treatment
Experimental: as §1, §2, §3

[6] = tested on: MCF-7 (human breast adenocarcinoma); experiment: MTT cytotoxicity assay, MCF-7; type: cell-based; settings: for pIC50: Homo sapiens, MCF7
Experimental: as §1, §2, §3

KYSE-150 cells = experiment: Wound healing assay; type: cell-based, human; settings: for Cell migration into the wound: KYSE-150 monolayer, 72 h, 1 and 2.5 μM/mL; for Viability of KYSE-150 cells as compared to controls: highest concentration of 1 μM/mL and 2.5 μM/mL
Experimental: In addition, wound healing assay is used to test whether the compounds 1, 2 and 3 could affect cell motility.
A wound healing assay is performed as follows: KYESE-150 cells are seeded in each well of the 12-well plate at 50% confluence in completed medium. After 24 hrs seeding, the monolayer is wounded by scoring with a sterile plastic tip (1 mL), then washed several times with medium to remove cell debris and then incubated in conditioned medium in the absence or presence of the tested compounds for various periods of time up to 72 h. […] Cell migration into the wound surface is monitored by Olympus IX71 microscopy and digitally photographed.

[7] = MTT, 48 hrs treatment, read-out: Cytotoxicity IC50, DLD-1
[8] = MTT, 48 hrs treatment, read-out: Cytotoxicity IC50, KYSE-150
[9] = MTT, 48 hrs treatment, read-out: Cytotoxicity IC50, MDA-MB-231
[10] = MTT, 48 hrs treatment, read-out: Cytotoxicity IC50, MCF-7

Compound	pIC50 [1, 7]	pIC50 [2]	pIC50 [3, 8]	pIC50 [4, 9]	pIC50 [5]	pIC50 [6, 10]	pIC50 ([1]; summary statement in conclusion, read-out: IC50 of cell growth inhibition, DLD-1)	Cell migration into the wound (KYSE-150 cells)	Viability of KYSE-150 cells as compared to controls (KYSE-150 cells)	pIC50 ([3]; summary statement in conclusion, read-out: IC50 of cell growth inhibition, KYSE-150)	pIC50 ([4]; summary statement in conclusion, read-out: IC50 of cell growth inhibition, MDA-MB-231)	pIC50 ([6]; summary statement in conclusion, read-out: IC50 of cell growth inhibition, MCF-7)	Growth inhibition of KYSE-150 cells as compared to positive control ([3]; compared with canthatidin)	Growth inhibition of MDA-MB-231 cells as compared to positive control ([4]; compared with canthatidin)	Growth inhibition of MCF-7 cells as compared to positive control ([6]; compared with canthatidin)	Growth inhibition of DLD-1 cells as compared to positive control ([1]; compared with canthatidin)
C[C@@]12C(=O)OC(=O)[C@]1(C)[C@H]1CC[C@@H]2O1 [Cantharidin, reference compound]	4.86	5.51	5.51	5.33	5.35	4.89	–	–	–	–	–	–	–	–	–	–
COC(=O)C1=C(C(=O)OC)C2OC1CC2C#Cc1ccc(OC)cc1 (centres unmarked) [Compound 1]	5.22	5.21	5.74	5.64	4.67	5.61	> 5.00	do not migrate into the wound	do not alter the viability	> 5.00	> 5.00	> 5.00	–	–	–	–
CCOC(=O)C1=C(C(=O)OCC)C2OC1CC2C#Cc1ccc(OC)cc1 (centres unmarked) [Compound 2]	5.76	4.81	5.85	5.55	4.59	5.19	–	do not migrate into the wound	do not alter the viability	–	–	–	growth-inhibiting effects	growth-inhibiting effects	growth-inhibiting effects	–
COc1ccc(C#CC2CC3OC2C(C(=O)OC(C)(C)C)=C3C(=O)OC(C)(C)C)cc1 (centres unmarked) [Compound 3]	5.42	5.08	5.27	4.30	5.20	4.48	–	do not migrate into the wound	do not alter the viability	–	–	–	–	–	–	growth-inhibiting effects

— patent US9120816B2, “Oxanorbornadiene derivatives and their anticancer activities” (priority 2012, dated 2015)
